Laboratory results as given in patent US10654925B2, “Anti-marinobufagenin antibodies and uses thereof” (priority 2018, dated 2020).
Marks after values point to notes of the source that are not given here.

Legend:
Na^+K^+-ATPase (NKA) = test: Na^+K^+-ATPase activity (Malachite Green Phosphate Assay); assay type: biochemical, rat; conditions: NKA from rat heart (SLP fraction); Pi read as OD 630 nm; FIG. 4
Protocol: Na^+K^+-ATPase (NKA) was purified from rat heart. The NKA was collected as the sarcolemmal/particulate (SLP) fraction and frozen.
Na^+K^+-ATPase activity was measured as follows: aliquots of SLP were mixed with Reaction Buffer (200 mM Tris-HCl, pH 7.5, 200 mM NaCL, 30 mM MgCl2, 60 mM KCl, 10 mM EGTA, 100 μg/mL PMSF, 2 μg/mL pepstatin A, and 2 μg/mL aprotinin). Reactions were performed with or without MBG and with or without anti-MBG antibodies (1-100 μg/mL). Ouabain was used as positive control for NKA inhibition. Tubes were prewarmed, and ATP was added. Reactions were stopped and were placed on ice.
Phosphate was assayed using the Malachite Green Phosphate Assay. Phosphate standard or sample was added to each well of a 96-well plate, followed by Reagent A. Reagent B was added, with mixing and incubation. OD was then read at 630 nm in a microplate spectrophotometer.

[1] = test system: pregnant Sprague-Dawley rats; test: DOCA/saline rat model of pre-eclampsia; assay type: in vivo; conditions: tail cuff; baseline; antibodies 2.2 mg/kg/d i.p. days 16-18 in PDS (DOCA/saline) rats; MBG 7.65 μg/kg/d in normal pregnant rats (NPM); N = 10
[2] = test system: PKC-δ in the nucleus of primary rat cardiac fibroblasts; test: Inhibition of MBG-induced PKC-δ nuclear translocation (Western blot); conditions: MBG at 2 nM
Protocol: MBG was incubated with an anti-MBG antibody prior to addition to cultured primary rat cardiac fibroblasts. Nuclei were isolated 30 min later and analyzed for amount of PKC-6.

[3] = test system: pregnant Sprague-Dawley rats; test: DOCA/saline rat model of pre-eclampsia; assay type: in vivo; conditions: antibodies 2.2 mg/kg/d i.p. days 16-18 in PDS rats
Protocol: Female Sprague-Dawley rats (200-250 g, Charles River Laboratories) were acclimatized for 1 week, and mated with male Sprague-Dawley rats (275-300 g). Pregnancy was confirmed by the presence of vaginal plugs or by examination of vaginal smears. Each rat was housed separately.
Five groups of rats were studied (n=10 per group): Group 1 (NP): normal pregnant rats; Group 2 (PDS): pregnant rats injected i.p. initially with 12.5 mg of DOCA in a depot form, followed by a weekly i.p. injection of 6.5 mg of DOCA, and whose drinking water is replaced with 0.9% saline; Group 3 (NPM): Normal pregnant rats given daily injections of MBG (7.65 μg per kg body weight per day) once pregnancy was established on day four of the experiment; Group 4 (PDS-3E9): rats administered DOCA and saline as for Group 2, and also given the murine anti-MBG antibody 3E9 (2.2 mg per kg body weight per day) on days 16, 17, and 18 of pregnancy; and Group 5 (PDS-H3L2): rats administered DOCA and saline as for Group 2, and also given the humanized anti-MBG antibody H3L2 (2.2 mg per kg body weight per day) on days 16, 17, and 18 of pregnancy.
Systolic blood pressure (BP) was measured by tail cuff at days 17-19. At least 3 readings are taken after BP has stabilized, and the mean of these values was calculated. The reported BP values are the mean of the daily measurements. At 18-20 days of pregnancy, 24-hour urine was collected in the absence of food to avoid contamination of the measurement of the protein amount in urine by any fallen food particles. Each rat was housed separately in a metabolic cage during this portion of the study. The 24-hour protein excretion was measured and was normalized to creatinine. The rats were sacrificed after the last measurement on days 18-20, and blood samples were taken. The number of fetal pups was counted and examined. The mean number of pups and any developmental or histological abnormalities in the pups were assessed. Statistical analysis was performed using analysis of variance and Tukey's post hoc test. A p value ≤0.05 was considered statistically significant.

human CTB cells = assay type: cell-based

## C[C@]12CC[C@H](O)C[C@@]1(O)CC[C@@H]1[C@@H]2CC[C@]2(C)[C@@H](c3ccc(=O)oc3)C[C@H]3O[C@]132 [MBG, marinobufagenin]
Na^+K^+-ATPase (NKA)
  inhibition of NKA activity: inhibit the NKA activity significantly
[1]
  Blood Pressure-Initial: 104 ± 4 mm Hg
[2]
  amount of PKC-δ in the nucleus, MBG alone compared to Control (vehicle): induced an increase
[3]; MBG 7.65 μg/kg/d in NPM rats
  % Malformed Pups: 18 * %
  No. Pups: 9.5 ± 1.3
[3]; normalized to creatinine, 18-20 days of pregnancy, MBG 7.65 μg/kg/d in NPM rats
  Urine Protein: 6.4 ± 1.8 mg/24 h
[3]; tail cuff, 17-19 d of gestation, MBG 7.65 μg/kg/d in normal pregnant rats (NPM), N = 10
  Blood Pressure-Final: 137 ± 5 mm Hg
Human CTB cells
  PCNA expression, MBG compared to vehicle (DMSO): significantly downregulated
  phosphorylation of p38 MAPK, MBG compared to vehicle (DMSO): increased
  secretion of P1GF, MBG compared to vehicle (DMSO): significantly reduced
  secretion of VEGF, MBG compared to vehicle (DMSO): significantly reduced
  secretion of sEng, MBG compared to vehicle (DMSO): significantly increased
  secretion of sFlt1, MBG compared to vehicle (DMSO): significantly increased
